Experiments:
[1] = Mean surviving fraction of V79 cells following a 1-h exposure to H2O2.; format: functional, Cricetulus griseus
[2] = Mean surviving fraction of V79 cells following a 12-Gy dose of radiation.; format: functional, Cricetulus griseus
[3] = test system: V79; conditions: Cricetulus griseus
[4] = test system: V79; conditions: Cricetulus griseus; remark: listed apart in the source

| SMILES | H2O2 prot [1] | Radiation prot [2] | Radiation prot [3] | H2O2 prot [4] |
| --- | --- | --- | --- | --- |
| CC1(C)C=C(C=O)C(C)(C)N1O | 2.7 | 0.13 | – | – |
| CC1(C)CC(=O)CC(C)(C)N1 | 0.5 | 1.1 | – | – |
| CC1(C)CC(=O)C(C)(C)N1O | 1.1 | 1 | – | – |
| CCN(CC)CC1=CC(C)(C)N(O)C1(C)C | – | 0.96 | – | – |
| CC1(C)CC(O)CC(C)(C)N1[O] [TEMPOL] | 2.5 | 5.1 | – | – |
| CC1(C)C=C(C[P+](c2ccccc2)(c2ccccc2)c2ccccc2)C(C)(C)N1[O] | – | – | 0.72 | – |
| CCOCC1=CC(C)(C)N(O)C1(C)C | 3.2 | – | – | – |
| CC1(C)C=C(CN2CCCCC2)C(C)(C)N1 | – | 0.95 | – | – |
| CC1(C)C=C(C=O)C(C)(C)N1 | 0.9 | 0.07 | – | – |
| CC1(C)CC(N2C(=O)c3ccccc3C2=O)CC(C)(C)N1O | 1.5 | – | – | – |
| CC1(C)C=C(CN2C(=O)c3ccccc3C2=O)C(C)(C)N1O | 3.3 | 0.49 | – | – |
| CC1(C)C=C(CN2CCCC2)C(C)(C)N1 | 1 | 0.34 | – | – |
| CC1(C)C=C(CCSC(=N)N)C(C)(C)N1[O] | – | – | 7.5 | 2.2 |
| CC1(C)C=C(C(N)=O)C(C)(C)N1[O] | – | – | 10.7 | 1 |
| CC1(C)C=C(CO)C(C)(C)N1[O] | – | – | 2.6 | 1.8 |
| CN(CC1=CC(C)(C)N([O])C1(C)C)C12CC3CC(CC(C3)C1)C2 | – | – | – | 3.3 |
| CCN(CC)CC1=CC(C)(C)N([O])C1(C)C | – | – | 17.2 | – |
| CC1(C)CC(C(=O)O)C(C)(C)N1[O] (centres undefined) | 1 | – | – | – |
| CC1(C)CC(CO)C(C)(C)N1[O] (centres undefined) | – | – | 4.7 | 1.1 |
| COC(=O)C1=CC(C)(C)N([O])C1(C)C | – | – | 0.94 | 1.5 |
| CN(C)CC1=CC(C)(C)N(O)C1(C)C | – | 16 | – | – |
| CC1=[N+]([O-])C(C)CC1 (centres undefined) | 1.1 | 0.91 | – | – |
| CN(CC1=CC(C)(C)N(O)C1(C)C)C12CC3CC(CC(C3)C1)C2 | 2.6 | – | – | – |

| SMILES | H2O2 prot [1] | Radiation prot [2] | Radiation prot [3] | H2O2 prot [4] |
| --- | --- | --- | --- | --- |
| CC(=O)C1=CC(C)(C)N([O])C1(C)C | – | 4.8 | – | – |
| CC1(C)C=C(C(=O)NCCCN)C(C)(C)N1[O] | – | – | – | 1.1 |
| CC1(C)CC(O)CC(C)(C)N1O [TEMPOL HYDROXYLAMINE] | – | 1.05 | – | – |
| CC1(C)CC(O)CC(C)(C)N1 | 0.4 | 0.9 | – | – |
| CC1(C)C=C(C(=O)NCCCO)C(C)(C)N1[O] | – | – | – | 1.1 |
| CN(C)CC1=CC(C)(C)N([O])C1(C)C | – | – | 13.9 | 2.1 |
| CC1(C)C=C(C(=O)NCCCN)C(C)(C)N1O | 1 | – | – | – |
| CN1C(C)(C)C=C(C=O)C1(C)C | – | 0.6 | – | – |
| CC1(C)CC(N2C(=O)c3ccccc3C2=O)CC(C)(C)N1 | 0.8 | 1.7 | – | – |
| CC1(C)C=C(CNC2CCCCC2)C(C)(C)N1[O] | – | – | 4.4 | – |
| CCCCN(CCCC)CC1=CC(C)(C)N([O])C1(C)C | – | – | – | 3.2 |
| CC[N+](CC)(CC)CC1=CC(C)(C)N([O])C1(C)C | – | – | 1.2 | – |
| CC1(C)CC(N)C(C)(C)N1[O] (centres undefined) | 1.1 | 12.9 | – | – |
| CCCCN(CCCC)C1CC(C)(C)N([O])C(C)(C)C1 | – | – | – | 2.9 |
| CC1(C)C=C(C(=O)NCCCN)C(C)(C)N1 | – | 0.52 | – | – |
| CC(=O)C1=CC(C)(C)NC1(C)C | 1.3 | 0.63 | – | – |
| CC1(C)CCCC(C)(C)N1[O] | 3.5 | 4.2 | – | – |
| CC1(C)CCCC(C)(C)N1O | 1.5 | 0.68 | – | – |
| CC1(C)C=C(C(=O)NCCO)C(C)(C)N1[O] | – | – | – | 1.2 |
| CC1(C)C=C(CN2Cc3ccccc3C2)C(C)(C)N1[O] | – | – | 3.9 | – |
| CC1(C)C=C(C(=O)NCC(=O)O)C(C)(C)N1[O] | – | – | 0.98 | 0.9 |
| CC1(C)CC(=O)C(C)(C)N1[O] | – | – | 10.2 | 0.9 |
| CC(C)(C)NCC1=CC(C)(C)N(O)C1(C)C | 2.1 | 1.2 | – | – |

From ChEMBL document CHEMBL1131290, “Studies of structure-activity relationship of nitroxide free radicals and their precursors as modifiers against oxidative damage” (1998)
